Measurements published in US5371225A, “Tetracyclic compounds” (Kyowa Hakko Kogyo Co., Ltd., priority 1992, dated 1994).

Key:
[1] = system: spleen cells (antibody production, direct PFC count); test: Plaque Forming Cell Assay (inhibition of antibody production); type: cell-based, Balb/c strain mice; settings: Mus musculus, Erythrocyte, 120 h; 10^-6 M; spleen cells of mice sensitized with sheep erythrocytes, cultured 5 days; read-out: Inhibition rate
Description: The plaque forming cell assay was carried out by the following manner with reference to the method of Jerne et al. [Science, 140, 405 (1963) ]and the method of Yamamoto et al. [Drugs Experimental Clinical Research, III(1), 5 (1982)].
Male Balb/c strain mice (7-week-old) (Charles River Co.) were sensitized with 1×10^8 sheep erythrocytes (product of Biotest Research Institute) administered via the caudal vein, and the spleens were extirpated after 6 or 7 days after the sensitization. The extirpated spleens were immersed in Hanks' solution (Nissui Seiyaku) to make a cell suspension, which was then filtered, followed by centrifugal separation at 1200 rpm for 5 minutes. After centrifugal separation, the supernatant was discarded and the precipitate was treated with Tris·NH4 Cl solution to remove the erythrocytes, and then washed three times with Hanks' solution. After discarding the supernatant, the cells were suspended in an RPMI-1640 medium (Nissui Seiyaku) containing 10% bovine fetal serum (Gibco Co. ), 50 μg/ml of streptomycin (Meiji Seika), […] of penicillin (Meiji Seika) and 2mercaptoethanol (5×10^-5 M). In each well of a micro culture plate (NUNK Co., Ltd., 24 wells) were put 2 ml of the mixture of the cell suspension containing 1×10^7 of spleen cells, 5×10^6 sheep erythrocytes and a test compound solution (10^-6 M) obtained by diluting the test compound dissolved in dimethylsulfoxide (10^-2 M) with the above mentioned RPMI-1640, and the cells were cultured at 37° C. for 5 days.
After the completion of the culturing, the cells were subjected to centrifugal separation at 2000 rpm for 5 minutes, and the resulting supernatant was removed. The precipitate was suspended in 1 ml of Hanks' solution, again subjected to centrifugal separation, suspended in 1 ml of Hanks' solution, and then, 50 μl of the suspension and 50 μl of sheep erythrocytes were added to 400 μl of 0.25% agarose/Hanks' solution heated to 50° C. in advance, and the mixture was scattered on a glass slide, placed on a plaque assay plate, and together with guinea pig complement (Cedarlene Institute) diluted 40-fold with a phosphate buffer solution, incubated at 37° C. for 1 to 2 hours. The number of the appearing direct plaque cells (direct PFC count) in suspension was counted.
The inhibition rate of the antibody production of the test compound was determined by the following equation. [formula]
The compound used for comparison was 5,6-dihydro-9-fluoro-3-phenylbenz[c]acridine-7-carboxylic acid [Japanese Published Unexamined Patent Application No. 233661/90, hereinafter referred to as Compound (A)]represented by formula (A). [drawing 12]
PFC count in control means PFC count in the absence of the test compound (dimethylsulfoxide alone).

[2] = system: spleen cells (antibody production, direct PFC count); test: as above; type: cell-based, Balb/c strain mice; settings: Mus musculus, Erythrocyte, 120 h, spleen cells of mice sensitized with sheep erythrocytes, cultured 5 days, read-out: Inhibition rate; for inhibition at 10 µM: 10^-5 M; for inhibition at 0.1 µM: 10^-7 M

Row | SMILES | inhibition at 1 µM [1] [%] | inhibition at 10 µM [2] [%] | inhibition at 0.1 µM [2] [%]
1 | O=C(O)c1c2c(nc3ccc(F)cc13)-c1ccc(-c3ccccc3)cc1CC2 [A, 5,6-dihydro-9-fluoro-3-phenylbenz[c]acridine-7-carboxylic acid, reference compound] | 45.9 | 78.6 | 
2 | O=C(O)c1c2c(nc3ccc(F)cc13)-c1ccc(-c3ccccc3F)cc1CC2 [Compound 2, 5,6-Dihydro-9-fluoro-3-(2-fluorophenyl) ben z [c]acridine-7carboxylicacid] | 94.4 | 99.4 | 57.1
3 | O=C(O)c1c2c(nc3ccc(F)cc13)-c1ccc(-c3ccccc3F)cc1CCC2 [Compound 3, 6,7-Dihydro-10-fluoro-3-(2-fluorophenyl) -5Hbenzo [6, 7]cyclohepta [1,2-b]quinoline-8-carboxylic acid] | 80.3 | 83.5 | 55.4
4 | CC1Cc2c(nc3ccc(F)cc3c2C(=O)O)-c2ccc(-c3ccccc3F)cc21 (centres unmarked) [Compound 5, 5,6-Dihydro-9-fluoro-3-(2-fluorophenyl)-5methylbenz[c]acridine-7-carboxylicacid] | 64.6 | 98.7 | 
5 | CC1(C)Cc2c(nc3ccc(F)cc3c2C(=O)O)-c2ccc(-c3ccccc3F)cc21 [Compound 7] | 75.3 | 98.1 | 
6 | CC1Cc2cc(-c3ccccc3F)ccc2-c2nc3ccc(F)cc3c(C(=O)O)c21 (centres unmarked) [Compound 8] | 80.2 | 98.7 | 
